Results taken from patent US3974140A, “Ureidoacetamido-penicillins” (Bayer Aktiengesellschaft, priority 1970, dated 1976).

Tests used:
[1] = test system: Staph. aureus 133; test: Surviving mice after intraperitoneal infection and subcutaneous therapy; format: in vivo, white mice, CF1 strain; settings: 2 × 200 units/mouse s.c.
Method: (§1) The experiments on animals (see Table 3) were carried out with white mice of the CF1 strain. The infection took place intraperitoneally with the particular bacterium indicated.

[2] = test system: Psdm. aerug. Bonn; test: MIC, liquid medium test tube series dilution test; format: cell-based, Pseudomonas aerug.; settings: 24 hours, 37°C
Procedure, shortened: (§2)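 Penicillins were serially diluted in test tubes of complete liquid medium, inoculated, incubated 24 hours at 37°C, and inspected; the non-turbid tube of the series marked the minimum inhibitory concentration (units/ml).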

[3] = test system: Psdm. aerug. Walter; test: MIC, liquid medium test tube series dilution test; format: cell-based, Pseudomonas aerug.; settings: 24 hours, 37°C
Procedure, shortened: as §2

[4] = test system: Klebsiella; settings: background statement; cited from earlier work
[5] = test system: Staph. aureus 1777 E; test: MIC, liquid medium test tube series dilution test; format: cell-based, Staphylococcus aureus; settings: 24 hours, 37°C
Procedure, shortened: as §2

[6] = test system: Staph. aureus 133; test: MIC, liquid medium test tube series dilution test; format: cell-based, Staphylococcus aureus; settings: Staph. aureus 133, 24 hours, 37°C
Procedure, shortened: as §2

[7] = test system: Klebsiella K 10; test: MIC, liquid medium test tube series dilution test; format: cell-based; settings: Klebsiella K 10, 24 hours, 37°C
Procedure, shortened: as §2

[8] = test system: E. coli A 261; test: MIC, liquid medium test tube series dilution test; format: cell-based; settings: E. coli A 261, 24 hours, 37°C
Procedure, shortened: as §2

[9] = test system: E. coli C 165; test: MIC, liquid medium test tube series dilution test; format: cell-based; settings: E. coli C 165, 24 hours, 37°C
Procedure, shortened: as §2

[10] = test system: Klebsiella 63; test: MIC, liquid medium test tube series dilution test; format: cell-based; settings: Klebsiella 63, 24 hours, 37°C
Procedure, shortened: as §2

[11] = test system: E. coli 183/58; test: MIC, liquid medium test tube series dilution test; format: cell-based; settings: E. coli 183/58, 24 hours, 37°C
Procedure, shortened: as §2

[12] = test system: E. coli 14; test: MIC, liquid medium test tube series dilution test; format: cell-based; settings: E. coli 14, 24 hours, 37°C
Procedure, shortened: as §2

[13] = test system: Proteus vulg. 1017; test: MIC, liquid medium test tube series dilution test; format: cell-based, Proteus vulgaris; settings: Proteus vulg. 1017, 24 hours, 37°C
Procedure, shortened: as §2

[14] = test system: Proteus vulg. 3400; test: MIC, liquid medium test tube series dilution test; format: cell-based, Proteus vulgaris; settings: Proteus vulg. 3400, 24 hours, 37°C
Procedure, shortened: as §2

[15] = test system: Pseudomon. aer. F 41; test: Surviving mice after intraperitoneal infection and subcutaneous therapy; format: in vivo, white mice, CF1 strain; settings: 30 min before and 2, 4, 6 hours after infection, 1st day
Method: as §1

[16] = Acute toxicity (LD50), intravenous injection into the vein of the tail; format: in vivo; settings: mouse, in vivo, iv
Text: Acute toxicity (LD50) in white mice after
intravenous injection into the vein of the […]

[17] = test system: Streptoc. faec. ATCC 9790; test: MIC, liquid medium test tube series dilution test; format: cell-based; settings: Strep. faec. (Enterococcus) ATCC 9790, 24 hours, 37°C
Procedure, shortened: as §2

[18] = test system: E. coli; test: MIC, liquid medium test tube series dilution test; format: cell-based; settings: strain not given, 24 hours
Procedure, shortened: as §2

[19] = Acid stability; format: physicochemical; settings: pH 1 where stated
[20] = test system: Proteus vulgaris 1017; test: Reduction in number of bacteria/ml of blood after subcutaneous administration; format: in vivo, mouse
Text: Reduction in number of bacteria/ml of blood after subcutaneous
administration of Penicillin No. 83.
Infection took place intraperitoneally with Proteus vulgaris 1017, 8
× 10^5 /mouse; ampicillin-resistant.

[21] = test system: Psdm. aerug. Walter; test: Surviving mice after intraperitoneal infection and subcutaneous therapy; format: in vivo, white mice, CF1 strain; settings: compared with carbenicillin
Method: as §1

| Structure (SMILES) | Number of surviving mice ([1]; 1 day) [%] | Number of surviving mice ([1]; 2 days) [%] | Number of surviving mice ([1]; 3 days) [%] | Number of surviving mice ([1]; 5 days) [%] | MIC [2] | MIC [3] | Effectiveness against Klebsiella infections [4] | MIC [5] | MIC [6] [units/ml] | MIC [7] | MIC [8] | MIC [9] [units/ml] | MIC [10] | MIC [11] [units/ml] | MIC [12] | MIC [13] | MIC [14] | LD50 [16] [mg/kg] | MIC [17] | further results |
| --- | --- | --- | --- | --- | --- | --- | --- | --- | --- | --- | --- | --- | --- | --- | --- | --- | --- | --- | --- | --- |
| CC1(C)S[C@@H]2[C@H](NC(=O)[C@H](N)c3ccccc3)C(=O)N2[C@H]1C(=O)O [Ampicillin, D(-)-α-Aminobenzylpenicillin, reference compound] | 100 | 100 | 100 | 100 | 200 units/ml | 200 units/ml | not capable of effectively combating Klebsiella infections | 200 units/ml | < 1.0 | 100-200 units/ml | > 400 units/ml | 6.25 | 100-200 units/ml | 200 | ~ 0.8 units/ml | 400 units/ml | > 400 units/ml | – | – | – |
| CC1(C)S[C@@H]2[C@H](NC(=O)C(C(=O)O)c3ccccc3)C(=O)N2[C@H]1C(=O)O (some centres unmarked) [Carbenicillin] | – | – | – | – | – | – | only effective in man in the case of infections by Klebsiella bacteria if it is administered in continuing high doses | – | – | – | – | – | – | – | – | – | – | 2700 | – | Number of surviving mice ([15]; Dose E = 50,000 units/kg): 0%; Number of surviving mice ([15]; Dose F = 75,000 units/kg): 20%; Number of surviving mice ([15]; Dose G = 150,000 units/kg): 70%; Number of surviving mice ([15]; Dose H = 200,000 units/kg): 70% |
| Cc1ccc(C(=O)N(C)C(=O)N[C@@H](C(=O)N[C@@H]2C(=O)N3[C@@H]2SC(C)(C)[C@@H]3C(=O)O)c2ccccc2)cc1 [Example 73, Sodium D(-)-α-(3-p-methylbenzoyl-3-methyl-ureido)-benzylpenicillin] | 80 | 70 | 50 | 40 | 12.5 units/ml | ~ 50 units/ml | – | – | 0.78 | 25-50 units/ml | 200-400 units/ml | 6.25 | 12.5-25 units/ml | 1.56 | 3.12 units/ml | 6.25 units/ml | 12.5 units/ml | – | 50-100 units/ml | Effectiveness (MIC) [18]: 312 units/ml |
| COc1ccc(C(=O)N(C)C(=O)N[C@@H](C(=O)N[C@@H]2C(=O)N3[C@@H]2SC(C)(C)[C@@H]3C(=O)O)c2ccccc2)cc1[N+](=O)[O-] [Example 83, Sodium D(-)-α-(3-[4-methoxy-3-nitrobenzoyl]-3-methyl-ureido)-benzylpenicillin] | 80 | 70 | 70 | 70 | 50 units/ml | 100 units/ml | – | – | < 0.78 | 25 units/ml | 400 units/ml | 6.25 | 50 units/ml | 6.25 | 3.12 units/ml | 25 units/ml | 6.25 units/ml | > 1200 | 100 units/ml | Stability to acid [19]: remain microbiologically active at pH 1 for over one hour; Number of bacteria/ml of blood ([20]; 1 × 50,000 units/kg s.c. 30 min after infection, 30 mins.): 9 × 10^3 bacteria/ml of blood; Number of bacteria/ml of blood ([20]; 1 × 50,000 units/kg s.c., 60 mins.): 7 × 10^3 bacteria/ml of blood; Number of bacteria/ml of blood ([20]; 1 × 50,000 units/kg s.c., 90 mins.): 2 × 10^3 bacteria/ml of blood; Number of bacteria/ml of blood ([20]; 1 × 50,000 units/kg s.c., 120 mins.): 1 × 10^3 bacteria/ml of blood; Number of bacteria/ml of blood ([20]; 1 × 50,000 units/kg s.c., 150 mins.): 3 × 10^3 bacteria/ml of blood; Number of bacteria/ml of blood ([20]; 1 × 50,000 units/kg s.c., 180 mins.): 8 × 10^3 bacteria/ml of blood; Number of bacteria/ml of blood ([20]; 50,000 units/kg s.c. after 30 and 90 min, 60 mins.): 8 × 10^3 bacteria/ml of blood; Number of bacteria/ml of blood ([20]; 50,000 units/kg s.c. after 30 and 90 min, 90 mins.): ~5 × 10^3 bacteria/ml of blood; Number of bacteria/ml of blood ([20]; 50,000 units/kg s.c. after 30 and 90 min, 120 mins.): 2 × 10^2 bacteria/ml of blood; Number of bacteria/ml of blood ([20]; 50,000 units/kg s.c. after 30 and 90 min, 150 mins.): < 10^1 bacteria/ml of blood; Number of bacteria/ml of blood ([20]; 50,000 units/kg s.c. after 30 and 90 min, 180 mins.): < 10^1 bacteria/ml of blood; Number of bacteria/ml of blood ([20]; 50,000 units/kg s.c. after 30 min and further 50,000 units/kg after 90 min, 30 mins.): 2 × 10^4 bacteria/ml of blood |
| CN(C(=O)N[C@@H](C(=O)N[C@@H]1C(=O)N2[C@@H]1SC(C)(C)[C@@H]2C(=O)O)c1ccccc1)C(=O)c1ccccc1Cl [Example 107] | – | – | – | – | 0.8-4 units/ml | 0.8-4 units/ml | – | 20-100 units/ml | < 0.8 | ~ 4 units/ml | – | < 0.8 | 4-20 units/ml | < 0.8 | < 0.8 units/ml | 0.8-4 units/ml | 0.8-4 units/ml | – | 4-20 units/ml | Effectiveness in animal experiments against Pseudomonas aerug. Walter [21]: better than carbenicillin |
